{
  "source": "ChEMBL document CHEMBL4334471",
  "about": "“Discovery of 1,8-disubstituted-[1,2,3]triazolo[4,5-c]quinoline derivatives as a new class of Hippo signaling pathway inhibitors” (Bioorg Med Chem Lett, 2019)",
  "key": {"[1]": {"target": "Tyrosine-protein kinase Fer (Homo sapiens) (UniProt P16591)", "experiment": "Inhibition of recombinant human FER (541 to end residues) assessed as residual activity at 10 uM using KKKSPGEYVNIEF as substrate at 40 mins in presence of [gamma-33ATP] by scintillation counting based radiometry assay relative to control"}, "[2]": {"target": "High affinity nerve growth factor receptor (Homo sapiens) (UniProt P04629)", "experiment": "Inhibition of recombinant human TRKA (440 to end residues) assessed as residual activity at 10 uM using KKKSPGEYVNIEF as substrate incubated for 40 mins in presence of [gamma33P]ATP by scintillation counting based radiometry assay relative to control"}, "[3]": {"target": "Death-associated protein kinase 3 (Homo sapiens) (UniProt O43293)", "sequence (O43293 whole entry, looked up, the tested form may be a part)": "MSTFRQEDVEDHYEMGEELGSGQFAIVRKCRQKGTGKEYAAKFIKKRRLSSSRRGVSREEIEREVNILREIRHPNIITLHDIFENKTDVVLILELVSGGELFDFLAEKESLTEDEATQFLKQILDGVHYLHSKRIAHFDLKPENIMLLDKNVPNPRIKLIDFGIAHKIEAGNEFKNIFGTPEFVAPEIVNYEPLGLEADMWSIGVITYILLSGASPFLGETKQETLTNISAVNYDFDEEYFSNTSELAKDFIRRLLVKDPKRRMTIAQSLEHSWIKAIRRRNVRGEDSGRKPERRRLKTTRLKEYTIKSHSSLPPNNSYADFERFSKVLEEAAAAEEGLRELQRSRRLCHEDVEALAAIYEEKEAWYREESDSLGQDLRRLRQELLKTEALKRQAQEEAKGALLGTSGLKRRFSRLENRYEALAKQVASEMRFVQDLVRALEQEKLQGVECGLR", "experiment": "Inhibition of recombinant human ZIPK (1 to 290 residues) assessed as residual activity at 10 uM using KKLNRTLSFAEPG substrate incubated for 40 mins in presence of [gamma33P]ATP by scintillation counting based radiometry assay relative to control"}, "[4]": {"tested_on": "Glycogen synthase kinase-3 alpha (Homo sapiens), P49840 [UNDEFINED MUTATION]", "experiment": "Inhibition of human GSK-3alpha S449A mutant (2 to end residues) assessed as residual activity at 10 uM using phospho GS2 peptide as substrate after 40 mins by [gamma-33ATP] radiometric assay"}, "[5]": {"tested_on": "Hepatocyte growth factor receptor (Homo sapiens), P08581 [D1228H]", "experiment": "Inhibition of recombinant human MET A1209G/V1290L/D1246H mutant (974 to end residues) assessed as residual activity at 10 uM using KKKGQEEEYVFIE as substrate incubated for 40 mins in presence of [gamma-33ATP by scintillation counting based radiometry assay relative to control"}, "[6]": {"tested_on": "Serine/threonine-protein kinase D1 (Homo sapiens), Q15139 [UNDEFINED MUTATION]", "experiment": "Inhibition of recombinant full-length human PKCmu R135A mutant assessed as residual activity at 10 uM using KKLNRTLSVA as substrate incubated for 40 mins in presence of [gamma33P]ATP by scintillation counting based radiometry assay relative to control"}, "[7]": {"target": "Mitogen-activated protein kinase kinase kinase 10 (Homo sapiens) (UniProt Q02779)", "experiment": "Inhibition of recombinant human MLK2 (1 to 499 residues) assessed as residual activity at 10 uM using myelin basic protein as substrate incubated for 40 mins in presence of [gamma-33ATP by scintillation counting based radiometry assay relative to control"}, "[8]": {"target": "Serine/threonine-protein kinase ICK (Homo sapiens) (UniProt Q9UPZ9)", "experiment": "Inhibition of human ICK (1 to 312 residues) assessed as residual activity at 10 uM using RRRFRPASPLRGP as substrate after 40 mins by [gamma-33ATP] radiometric assay relative to control"}, "[9]": {"target": "Ephrin type-A receptor 5 (Homo sapiens) (UniProt P54756)", "sequence (P54756 whole entry, the tested form may be a part)": "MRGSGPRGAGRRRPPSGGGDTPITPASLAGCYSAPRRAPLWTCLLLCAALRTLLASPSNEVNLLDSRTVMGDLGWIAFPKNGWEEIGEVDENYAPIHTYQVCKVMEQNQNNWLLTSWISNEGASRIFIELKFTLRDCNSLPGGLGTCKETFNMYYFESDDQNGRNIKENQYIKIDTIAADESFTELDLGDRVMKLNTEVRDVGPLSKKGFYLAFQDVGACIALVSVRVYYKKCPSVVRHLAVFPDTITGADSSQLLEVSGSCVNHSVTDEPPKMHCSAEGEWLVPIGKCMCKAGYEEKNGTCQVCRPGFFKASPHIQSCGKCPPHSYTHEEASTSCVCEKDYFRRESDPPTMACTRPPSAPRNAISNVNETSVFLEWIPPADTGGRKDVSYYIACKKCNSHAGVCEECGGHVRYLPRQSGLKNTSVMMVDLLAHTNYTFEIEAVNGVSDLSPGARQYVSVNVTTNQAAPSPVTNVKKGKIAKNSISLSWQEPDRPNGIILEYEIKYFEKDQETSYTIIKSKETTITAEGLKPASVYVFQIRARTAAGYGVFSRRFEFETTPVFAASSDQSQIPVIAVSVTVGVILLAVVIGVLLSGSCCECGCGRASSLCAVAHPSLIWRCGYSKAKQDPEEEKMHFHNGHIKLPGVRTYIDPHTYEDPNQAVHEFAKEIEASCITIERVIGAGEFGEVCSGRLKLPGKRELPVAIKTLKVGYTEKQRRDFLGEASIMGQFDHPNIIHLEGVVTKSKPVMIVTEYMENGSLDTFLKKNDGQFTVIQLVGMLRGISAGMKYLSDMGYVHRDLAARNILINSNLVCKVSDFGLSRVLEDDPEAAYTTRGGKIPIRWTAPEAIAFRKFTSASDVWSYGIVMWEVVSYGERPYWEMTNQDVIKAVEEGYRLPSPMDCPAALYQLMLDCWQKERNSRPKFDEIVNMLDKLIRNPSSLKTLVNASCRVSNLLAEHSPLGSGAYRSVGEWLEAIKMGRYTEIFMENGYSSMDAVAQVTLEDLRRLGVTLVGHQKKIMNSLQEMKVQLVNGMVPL", "experiment": "Inhibition of recombinant human EphA5 (655to 956 residues) assessed as residual activity at 10 uM using poly(Glu, Tyr) 4:1 as substrate at 40 mins in presence of [gamma-33ATP] by scintillation counting based radiometry assay relative to control"}, "[10]": {"target": "cGMP-dependent protein kinase 1 (Homo sapiens) (UniProt Q13976)", "sequence (Q13976 whole entry)": "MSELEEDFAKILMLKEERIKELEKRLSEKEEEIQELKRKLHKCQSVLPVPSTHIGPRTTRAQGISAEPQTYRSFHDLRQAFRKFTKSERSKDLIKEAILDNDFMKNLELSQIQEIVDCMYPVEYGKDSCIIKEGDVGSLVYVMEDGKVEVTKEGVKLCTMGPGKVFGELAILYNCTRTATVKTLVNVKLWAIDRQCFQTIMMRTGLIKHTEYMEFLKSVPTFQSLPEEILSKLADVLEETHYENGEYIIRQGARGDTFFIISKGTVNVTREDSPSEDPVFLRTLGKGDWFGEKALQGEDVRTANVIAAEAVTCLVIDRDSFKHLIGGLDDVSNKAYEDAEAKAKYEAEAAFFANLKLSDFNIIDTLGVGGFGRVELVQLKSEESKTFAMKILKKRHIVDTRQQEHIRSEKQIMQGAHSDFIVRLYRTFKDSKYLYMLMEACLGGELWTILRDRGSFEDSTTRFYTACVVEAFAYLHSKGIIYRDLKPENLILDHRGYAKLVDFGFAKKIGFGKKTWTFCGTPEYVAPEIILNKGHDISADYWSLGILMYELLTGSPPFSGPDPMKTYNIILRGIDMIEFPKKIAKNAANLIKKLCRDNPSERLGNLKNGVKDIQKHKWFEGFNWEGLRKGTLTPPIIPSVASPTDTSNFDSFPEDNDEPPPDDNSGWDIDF", "experiment": "Inhibition of recombinant full-length human PKG1beta assessed as residual activity at 10 uM using RRRLSFAEPG as substrate incubated for 40 mins in presence of [gamma33P]ATP by scintillation counting based radiometry assay relative to control"}, "A549": {"tested_on": "A549", "experiment": "Upregulation of CYR61 in human A549 cells incubated for 24 hrs by qRT-PCR analysis", "type": "functional, cell-based"}, "[11]": {"target": "Serine/threonine-protein kinase Sgk3 (Homo sapiens) (UniProt Q96BR1)", "sequence (Q96BR1 whole entry)": "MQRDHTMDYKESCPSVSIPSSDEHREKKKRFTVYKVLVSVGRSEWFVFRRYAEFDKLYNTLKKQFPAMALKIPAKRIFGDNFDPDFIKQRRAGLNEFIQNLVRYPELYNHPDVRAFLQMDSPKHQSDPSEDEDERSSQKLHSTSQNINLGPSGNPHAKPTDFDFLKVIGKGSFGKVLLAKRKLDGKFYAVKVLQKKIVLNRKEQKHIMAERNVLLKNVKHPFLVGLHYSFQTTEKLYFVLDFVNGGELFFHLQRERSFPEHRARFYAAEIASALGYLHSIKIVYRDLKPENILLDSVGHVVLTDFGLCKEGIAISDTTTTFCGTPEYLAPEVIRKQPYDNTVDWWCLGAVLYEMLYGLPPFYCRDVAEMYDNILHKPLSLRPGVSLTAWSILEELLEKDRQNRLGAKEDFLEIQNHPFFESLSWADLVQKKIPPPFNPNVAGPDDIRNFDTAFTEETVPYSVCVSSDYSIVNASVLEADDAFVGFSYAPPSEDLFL", "experiment": "Inhibition of recombinant human SGK3 (119 to end residues) assessed as residual activity at 10 uM using GRPRTSSFAEGKK as substrate incubated for 40 mins in presence of [gamma33P]ATP by scintillation counting based radiometry assay relative to control"}, "[12]": {"tested_on": "PI3-kinase p110-alpha/p85-alpha (Homo sapiens), P27986+P42336 [E545K]", "experiment": "Inhibition of recombinant full-length human PI3K p110/p85 E545K mutant assessed as residual activity at 10 uM using phosphatidylinositol-4, 5-bisphosphate as substrate incubated for 40 mins in presence of [gamma33P]ATP by scintillation counting based radiometry assay relative to control"}, "[13]": {"target": "5'-AMP-activated protein kinase catalytic subunit alpha-1 (Homo sapiens) (UniProt Q13131)", "sequence (Q13131 whole entry, looked up)": "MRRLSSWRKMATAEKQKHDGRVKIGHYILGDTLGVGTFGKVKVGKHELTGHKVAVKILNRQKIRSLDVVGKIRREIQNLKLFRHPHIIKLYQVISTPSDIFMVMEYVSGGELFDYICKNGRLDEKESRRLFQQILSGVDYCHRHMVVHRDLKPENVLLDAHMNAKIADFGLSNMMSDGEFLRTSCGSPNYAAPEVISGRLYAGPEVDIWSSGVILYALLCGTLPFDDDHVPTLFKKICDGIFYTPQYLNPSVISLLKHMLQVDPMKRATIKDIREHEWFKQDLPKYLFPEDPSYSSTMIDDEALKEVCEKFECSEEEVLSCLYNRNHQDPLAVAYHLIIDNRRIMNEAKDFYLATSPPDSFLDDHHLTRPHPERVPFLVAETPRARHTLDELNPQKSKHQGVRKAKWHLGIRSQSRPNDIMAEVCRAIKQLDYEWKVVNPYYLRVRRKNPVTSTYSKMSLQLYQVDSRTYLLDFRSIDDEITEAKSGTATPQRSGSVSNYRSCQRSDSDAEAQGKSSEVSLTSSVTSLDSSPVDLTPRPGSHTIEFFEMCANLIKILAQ", "experiment": "Inhibition of recombinant full length human AMPKalpha1 assessed as residual activity at 10 uM using AMARAASAAALAR as substrate incubated for 40 mins in presence of [gamma-33ATP] by scintillation counting based radiometry assay relative to control"}, "[14]": {"target": "NT-3 growth factor receptor (Homo sapiens) (UniProt Q16288)", "sequence (Q16288 32-839 limits assumed)": "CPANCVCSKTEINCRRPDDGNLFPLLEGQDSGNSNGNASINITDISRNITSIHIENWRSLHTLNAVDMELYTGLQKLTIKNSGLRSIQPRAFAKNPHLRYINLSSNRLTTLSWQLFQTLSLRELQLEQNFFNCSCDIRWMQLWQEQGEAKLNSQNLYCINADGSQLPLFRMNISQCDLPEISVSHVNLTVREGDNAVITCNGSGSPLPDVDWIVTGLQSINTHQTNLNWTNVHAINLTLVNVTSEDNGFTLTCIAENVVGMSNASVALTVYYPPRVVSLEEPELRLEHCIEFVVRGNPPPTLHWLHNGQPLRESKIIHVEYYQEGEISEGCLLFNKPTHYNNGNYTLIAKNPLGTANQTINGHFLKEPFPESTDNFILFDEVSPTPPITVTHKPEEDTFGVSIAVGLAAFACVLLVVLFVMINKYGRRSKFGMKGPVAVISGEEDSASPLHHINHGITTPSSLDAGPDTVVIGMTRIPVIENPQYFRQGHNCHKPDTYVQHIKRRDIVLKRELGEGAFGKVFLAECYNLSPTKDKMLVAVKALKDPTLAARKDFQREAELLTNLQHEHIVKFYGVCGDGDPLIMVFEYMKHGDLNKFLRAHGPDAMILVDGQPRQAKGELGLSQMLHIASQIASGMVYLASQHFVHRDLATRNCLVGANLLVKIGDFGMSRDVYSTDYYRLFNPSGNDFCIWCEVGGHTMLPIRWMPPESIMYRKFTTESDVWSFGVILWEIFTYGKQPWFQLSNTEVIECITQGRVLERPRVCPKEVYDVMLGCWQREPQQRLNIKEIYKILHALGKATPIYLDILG", "experiment": "Inhibition of recombinant human TRKC (510 to end residues) assessed as residual activity at 10 uM using GEEPLYWSFPAKK as substrate incubated for 40 mins in presence of [gamma33P]ATP by scintillation counting based radiometry assay relative to control"}, "[15]": {"target": "Focal adhesion kinase 1 (Homo sapiens) (UniProt Q05397)", "experiment": "Inhibition of recombinant human FAK (411 to 686 residues) assessed as residual activity at 10 uM using EEEEYEEEEEEYYIIEEEEEEYEEEEEEYYEEEEEEKKKK as substrate at 40 mins in presence of [gamma-33ATP] by scintillation counting based radiometry assay relative to control"}, "[16]": {"target": "Ribosomal protein S6 kinase alpha-5 (Homo sapiens) (UniProt O75582)", "sequence (O75582 whole entry, looked up)": "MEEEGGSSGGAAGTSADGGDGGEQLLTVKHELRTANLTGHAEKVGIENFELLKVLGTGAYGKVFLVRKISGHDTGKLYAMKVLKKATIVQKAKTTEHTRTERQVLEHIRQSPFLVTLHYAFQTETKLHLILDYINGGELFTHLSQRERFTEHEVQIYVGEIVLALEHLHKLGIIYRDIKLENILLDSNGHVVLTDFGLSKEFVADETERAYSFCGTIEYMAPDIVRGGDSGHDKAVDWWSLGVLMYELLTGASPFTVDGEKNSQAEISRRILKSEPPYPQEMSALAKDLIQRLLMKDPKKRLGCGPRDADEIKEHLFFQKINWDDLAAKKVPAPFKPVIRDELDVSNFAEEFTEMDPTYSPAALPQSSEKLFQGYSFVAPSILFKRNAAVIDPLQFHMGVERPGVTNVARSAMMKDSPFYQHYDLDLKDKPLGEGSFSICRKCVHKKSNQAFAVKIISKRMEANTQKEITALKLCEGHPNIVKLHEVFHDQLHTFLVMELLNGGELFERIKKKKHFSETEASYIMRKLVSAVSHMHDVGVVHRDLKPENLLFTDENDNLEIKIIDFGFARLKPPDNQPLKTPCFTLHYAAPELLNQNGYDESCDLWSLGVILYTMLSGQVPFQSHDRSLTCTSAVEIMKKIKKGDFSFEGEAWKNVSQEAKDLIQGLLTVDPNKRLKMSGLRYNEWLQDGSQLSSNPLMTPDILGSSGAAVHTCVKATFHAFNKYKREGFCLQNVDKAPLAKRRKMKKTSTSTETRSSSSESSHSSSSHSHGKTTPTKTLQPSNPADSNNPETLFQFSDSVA", "experiment": "Inhibition of recombinant human MSK1 (2 to end residues) assessed as residual activity at 10 uM using GRPRTSSFAEGKK as substrate incubated for 40 mins in presence of [gamma-33ATP by scintillation counting based radiometry assay relative to control"}, "[17]": {"target": "Serine/threonine-protein kinase WNK1 (Homo sapiens) (UniProt Q9H4A3)", "experiment": "Inhibition of recombinant human WNK1 (1 to 491 residues) assessed as residual activity at 10 uM using myelin basic protein as substrate incubated for 40 mins in presence of [gamma33P]ATP by scintillation counting based radiometry assay relative to control"}, "[18]": {"target": "Cyclin-dependent kinase 14/Cyclin-Y (Homo sapiens) (UniProt O94921+Q8ND76)", "experiment": "Inhibition of recombinant full length human CDK14/cyclinY assessed as residual activity at 10 uM in presence of [gamma-33ATP] by scintillation counting based radiometry assay relative to control", "type": "protein-complex assay"}, "[19]": {"target": "Cyclin-dependent kinase-like 2 (Homo sapiens) (UniProt Q92772)", "experiment": "Inhibition of recombinant full length human CDKL2 assessed as residual activity at 10 uM in presence of [gamma-33ATP] by scintillation counting based radiometry assay relative to control"}, "[20]": {"target": "Ribosomal protein S6 kinase alpha-6 (Homo sapiens) (UniProt Q9UK32)", "experiment": "Inhibition of recombinant full length human Rsk4 assessed as residual activity at 10 uM using LRRASLG as substrate incubated for 40 mins in presence of [gamma33P]ATP by scintillation counting based radiometry assay relative to control"}},
  "data": [
    {"molecule": "C[C@@H](c1ccccc1)n1nnc2cnc3ccc(-c4cnc5[nH]ccc5c4)cc3c21", "values": [
      {"measurement": "Activity", "setting": "[1]", "value": 83, "unit": "%"},
      {"measurement": "Activity", "setting": "[2]", "value": 5, "unit": "%"},
      {"measurement": "Activity", "setting": "[3]", "value": 69, "unit": "%"},
      {"measurement": "Activity", "setting": "[4]", "value": 79, "unit": "%"},
      {"measurement": "Activity", "setting": "[5]", "value": 72, "unit": "%"},
      {"measurement": "Activity", "setting": "[6]", "value": 93, "unit": "%"},
      {"measurement": "Activity", "setting": "[7]", "value": 69, "unit": "%"},
      {"measurement": "Activity", "setting": "[8]", "value": 44, "unit": "%"},
      {"measurement": "Activity", "setting": "[9]", "value": 102, "unit": "%"},
      {"measurement": "Activity", "setting": "[10]", "value": 66, "unit": "%"},
      {"measurement": "Activity", "setting": "A549", "value": "Dose-dependent effect"},
      {"measurement": "Activity", "setting": "[11]", "value": 80, "unit": "%"},
      {"measurement": "Activity", "setting": "[12]", "value": 2, "unit": "%"},
      {"measurement": "Activity", "setting": "[13]", "value": 45, "unit": "%"},
      {"measurement": "Activity", "setting": "[14]", "value": 2, "unit": "%"},
      {"measurement": "Activity", "setting": "[15]", "value": 82, "unit": "%"},
      {"measurement": "Activity", "setting": "[16]", "value": 55, "unit": "%"},
      {"measurement": "Activity", "setting": "[17]", "value": 86, "unit": "%"},
      {"measurement": "Activity", "setting": "[18]", "value": 92, "unit": "%"},
      {"measurement": "Activity", "setting": "[19]", "value": 56, "unit": "%"},
      {"measurement": "Activity", "setting": "[20]", "value": 62, "unit": "%"}
    ]}
  ]
}
